# Measurements reported in patent US20040029276A1, “Fish attractants” (priority 2000, published 2004).
# Experiments:
# carp = test: Behavioural response of carp in a Perspex flow-through experimental flume; type: in vivo
# Description: The behaviour of carp in response to 17,20β-dihydroxy-4-pregnen-3-one was studied in a Perspex flow-through experimental flume. Fish were placed in the flume individually and allowed to acclimatise for a minimum of 1 hour before each experiment. The first set of experiments determined the behavioural response of male (n=5) and female (n=5) carp to serial dilutions of pure and synthetic form of 17,20β-dihydroxy-4-pregnen-3-one. Dilutions ranged from one part in 10^5 to one part in 10^11. The second set of experiments tested the behavioural response of male and female carp (n=6) to the same serial dilutions of synthetic 17,20β-dihydroxy-4-pregnen-3-one as used in Experiment 1, but with the addition of 5 dyed-gelatine pellets on the bottom of the flume. […] This feeding behaviour was characterised by the following: […]
# male and female carp = test: Electrophysiological and behavioural studies in an experimental behaviour chamber; type: in vivo
# Description: A particular composition which includes either a pure or crude synthetic form of 17,20β-dihydroxy-4-pregnen-3-one with an ethanol carrier has been tested by the inventors in laboratory experiments.
# [1] = tested on: olfactory system of the male fish; details: olfactory detection of the sex pheromone, Sorenson et al. 1987; cited from earlier work
structure (smiles),measurement,setting,value
"C[C@@H](O)[C@@]1(O)CC[C@H]2[C@@H]3CCC4=CC(=O)CC[C@]4(C)[C@H]3CC[C@@]21C [17,20β-dihydroxy-4-pregnen-3-one]",feeding behaviour in carp,carp; added to the behaviour chamber at concentrations ranging from 10^−5 to one part in 10^−10,resulted in feeding behaviour in carp
same,attraction of fish,carp; sexually immature carp,attracted immature carp
same,feeding behaviour in immature carp,carp; sexually immature carp,resulted in feeding behaviour in these individuals
same,feeding behaviour on detection of the hormone,male and female carp; experimental behaviour chamber,results in feeding behaviour
same,detection of the hormone by the fish,male and female carp; pure or crude synthetic form with an ethanol carrier,detected by both male and female carp
same,threshold concentration for the male fish,[1],about 10^−13 M
